In patent US20060160841A1, “Crystallization via high-shear transformation” (priority 2005, published 2006):

Experiment: Particle size D[90] of crystals before and after polymorph transformation
Type: physicochemical

Row | Structure (SMILES) | particle size D[90] (Example 1, needle-shaped crystals formed in vessel B on adding PG solution to water/PG anti-solvent at 10 to 20° C., before recirculation) | particle size D[90] (Example 1, small granular crystals after about 24 hours of recirculation through inline homogenization apparatus) | particle size D[90] (Example 2, small granular crystals after about 30 hours of recirculation by pump through outlet and inlet of vessel B) | particle size D[90] (Example 3, N-1 seeded, overhead homogenizer in transient vessel at 55-65° C., continuous transfer, filtered and dried)
1 | COc1ccc(-n2nc(C(N)=O)c3c2C(=O)N(c2ccc(N4CCCCC4=O)cc2)CC3)cc1 [H2-2, 1-(4-methoxyphenyl)-7-oxo-6-(4-(2-oxopiperidin-1-yl)phenyl)-4,5,6,7-tetrahydro-1H-pyrazolo[3,4-c]pyridine-3-carboxamide] | greater than 160 μm | – | – | –
2 | COc1ccc(-n2nc(C(N)=O)c3c2C(=O)N(c2ccc(N4CCCCC4=O)cc2)CC3)cc1 [N-1, 1-(4-methoxyphenyl)-7-oxo-6-(4-(2-oxopiperidin-1-yl)phenyl)-4,5,6,7-tetrahydro-1H-pyrazolo[3,4-c]pyridine-3-carboxamide] | – | less than 20 μm | less than 20 μm | less than 20 μm
